Reference: PubChem BioAssay (NCI)
“And” between values parts separate entries of the source, which are not always exact repeats. Identical values can stand only once.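 Grown in 96-well plates, cells were treated for 48 hours with each compound at five concentrations. Insufficient inhibition: endpoint recorded as highest concentration tested. GI50 is the concentration that inhibits growth by half. TGI denotes the concentration required for complete inhibition of growth.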

Legend:
Assay in all cases: NCI anticancer screen, dose series, 48 h
[1] = tested on: SW-620 colon
[2] = tested on: MDA-MB-231 breast
[3] = tested on: SK-OV-3 ovarian
[4] = tested on: KM12 colon
[5] = tested on: MCF7 breast
[6] = tested on: 786-0 renal
[7] = tested on: HL-60(TB) leukemia
[8] = tested on: UACC-62 melanoma
[9] = tested on: TK-10 renal
[10] = tested on: SK-MEL-28 melanoma

SMILES	GI50 [1] [µM]	TGI [1] [µM]	GI50 [2] [µM]	TGI [2] [µM]	GI50 [3] [µM]	TGI [3]	GI50 [4] [µM]	TGI [4] [µM]	GI50 [5] [µM]	TGI [5] [µM]	GI50 [6] [µM]	TGI [6]	GI50 [7] [µM]	TGI [7] [µM]	GI50 [8] [µM]	TGI [8] [µM]	GI50 [9] [µM]	TGI [9]	GI50 [10] [µM]	TGI [10]
COc1cc2c3c(cccc3c1)C(=O)N(CCN1CCCC1)C2=O	2.04	15.7	2.46	10.2	3.27	14.5 µM	2.88	> 100	1.71	20.4	2.92	> 100 µM	3.65	61	1.79	3.71	24.8	> 100 µM	1.84	3.43 µM
Cc1nn(-c2ccc(F)cc2)c2ncnc(Nc3ccc(NC(=O)Nc4ccc(Cl)c(C(F)(F)F)c4)cc3)c12	2.93	10.8	2.03	5.55	3.8	14.5 µM	2.66	10.9	2.11	6.67	1.98	5.85 µM	2.73	8.1	2.65	11.3	2.85	10.4 µM	2.18	5.68 µM
C#Cc1cnc(=O)n(C2CC(O)C(CO)O2)c1 (stereo unspecified)	> 100	> 100	> 100	> 100	> 100	> 100 µM	> 100	> 100	> 100	> 100	> 100	> 100 µM	> 100	> 100	> 100	> 100	> 100	> 100 µM	> 100	> 100 µM
COc1cc2ncn(-c3cc(OCc4ccccc4Cl)c(C(N)=O)s3)c2cc1OC	0.102	> 18.1	0.247	8.13	0.274	9.32 µM	0.0806	> 11.8	0.0885	> 25	0.873	> 22.8 µM	0.0741		0.283	> 25	3.04	> 22 µM	1.46	> 25 µM
COc1cc(C(=O)NC2c3ccccc3-c3ccccc32)c(N)cc1OCc1ccccc1	66.4	> 100	17.2	47.1	16.9	43.8 µM	> 100	> 100	42.8	> 100	21.4	> 60.8 µM	> 71.7	> 100	20.1	67.5	26.2	69.6 µM	25.2	> 92.7 µM
O=c1cc(-c2cccc(F)c2)[nH]c2cc3c(cc12)OCO3		> 100		1.03	0.265	1.01 µM and 1.03 µM	0.332			> 100	0.346	75 µM and 17.7 µM	0.201			> 64.9	4.71	75 µM and 44 µM	0.359	75 µM and > 72.4 µM
CC(CO)(CO)N=Cc1cc(I)cc(I)c1O		53		38.7		41.9 µM		28.2		46.3		30.9 µM		29.6		30.7		84.2 µM		38.7 µM
O=C(NNc1nc2c(F)cccc2n2cccc12)c1cnccn1	0.435	38.5	0.834	24.8	0.527	27.8 µM	0.458	27.1	0.412	29.6	0.426	19.3 µM	0.409	4.74	0.477	6.28	5.05	60.9 µM	0.65	15.7 µM
NC(CO)Cc1cnc[nH]1 (stereo unspecified)	> 100	> 100		> 100	> 100	> 100 µM	> 100	> 100	> 100	> 100	> 100	> 100 µM	> 100	> 100	> 100	> 100	> 100	> 100 µM	> 100	> 100 µM
CC1(C)N=C(N)N=C(N)N1c1ccc(CCCCc2ccc(S(=O)(=O)F)cc2)cc1	0.415	15.4	3.53	25	15.5	> 85 µM	0.601	13	0.425	14.2	0.64	19.1 µM	0.828	22.1	0.368	16.8	1.14	17.6 µM	4.57	20.3 µM
NC(N)=N/N=C(/c1ccccc1)c1ccc(F)cc1	0.376	19.3	0.649	14	0.371	12.8 µM	0.32	7.5	0.296	12.1	0.638	13.9 µM	3.67		0.421	15.5	0.506	18.4 µM	0.528	23 µM
CN(C)CC(=O)N1CCC(c2ccc(NC(=O)c3ncc(C#N)[nH]3)c(C3=CCCCC3)c2)CC1	4.98	18.7	8.31	23.2	5.33	17.4 µM	0.354	13.8	3.37	16.9	3.22	13.1 µM	2.99	8.86	3.3	11.7	7.86	20.6 µM	2.2	4.68 µM
Cc1cc2nc3c4cc(Cl)ccc4n(CCN(C)C)c3nc2cc1C	0.821	2.25	1.6	4.81	2.75	10.6 µM	1.55	3.17	1.06	2.49	1.81	4.22 µM	1.93	4.33	1.65	3.3	2.51	5.74 µM	2	3.53 µM
